From US20060172993A1 (priority 2002, published 2006)
Marks after values point to notes of the source that are not given here.

Columns and labels:
Format in all cases: in vivo, human
[1] = tested on: Patients diagnosed with Alzheimer's Disease; assay: CIBIC-plus (Clinician's Interview Based Impression of Change Plus Family Input)
Description: (§1) Subjects in the Placebo group received 21 weeks (5 months) of placebo medication.
The CIBIC-plus score was a second primary variable. An independent, experienced and properly trained clinician provided a global impression of the subject's deterioration or improvement over the course of the trial, based on separate interviews with the subject and caregivers. If helpful, the CIBIC rater audiotaped or videotaped the baseline interview for future reference.
The CIBIC-plus was performed at visit 2, 3, 4, and 5 (baseline, week 4, week 13, and month 5 or upon early discontinuation of trial medication intake). Only a trained CIBIC rater performed the test.
For ordinal categorical variables such as the CIBIC-plus score, the Van Elteren test controlling for investigator was used for the between group comparison. For the nominal data (e.g., events rates), the Cochran-Mantel-Haenszel test for general association controlling for investigator was used. A linear contrast on the proportion of patients that stay the same or improve was used to test for increasing response with increasing dose.

[2] = tested on: Patients diagnosed with Alzheimer's Disease; assay: ADCS/ADL scale (Activities of Daily Living)
Excerpt: as §1
The ADCS/ADL scale is a 23-item informant-based assessment scale measuring widely applicable daily activities appropriate for patients in the mild to moderate category of Alzheimer's Disease. The 23 items were selected for measurement from the larger set of 45 items studied by Galasko et al (Alzheimer Disease and Associated Disorders, Vol 11, Suppl. 2, 1997). These individual items were scored from 0-3 to […], depending on the question, with a possible total score of 78. A higher score indicated a higher functioning patient.
The items and scoring were as follows: • Eating (0-3) • Walking (0-3) • Toileting (0-3) • Bathing (0-3) • Grooming (0-3) • Dressing • selection of clothes (0-3) • physical performance (0-4) • Telephone (0-5) • Television (0-3) • Conversation (0-3) • Dishes (0-3) • Managing personal belongings (0-3) • Obtaining beverages (0-3) • Making a meal or snack (0-4) • Disposal of garbage (0-3) • Travel outside home (0-4) • Shopping (0-4) • Keeping appointments (0-3) • Ability to be left alone (0-3) • Current events (0-3) • Reading (0-2) • Writing (0-3) • Hobbies (0-3) • Household appliances (0-4)
An additional secondary indication captures overall changes in Activities of daily Living (ADL) performances as measured by the Alzheimer's Disease Cooperative Study Activities of Daily Living (ACDS/ADL) scale. As mentioned above this scale is comprised of 23 items that have been tested and validated in patients with mild to moderately severe Alzheimer's disease.

[3] = tested on: Patients diagnosed with Alzheimer's Disease; assay: Neuropsychiatric Inventory (NPI)
Excerpt: as §1
Neuropsychiatric behavior was monitored by a test known as The Neuropsychiatric Inventory (NPI) (Cummings, J. L. et al., Neurology, 44: 2308-2314, 1994). The NPI covers 10 domains of behaviors reported in patients with Alzheimer's Disease: delusions, hallucinations, agitation/aggression, dysphoria, anxiety, euphoria, apathy, disinhibition, irritability/lability and aberrant motor behavior. For each domain abnormal behavior can be absent (score 0) or present. If present, the frequency and severity of abnormal behavior is rated based on answers to a set of subquestions regarding behaviors relevant to that domain. Severity was rated 1 to 3 as mild, moderate or marked. Frequency was rated 1 to 4 as occasionally, often, frequently and very frequently. The product of frequency and severity (maximum score=12) was calculated for each domain. A total of NPI was calculated as the sum of the frequency and severity products (maximum score=120). The NPI was performed at visits 2, 3, 4 and 5 (baseline, week 4, week 13, and month 5 or upon early discontinuation of trial medication).

SMILES: COc1ccc2c3c1O[C@H]1C[C@@H](O)C=C[C@@]31CCN(C)C2 [GAL, galantamine]
- CIBIC-plus at Month 5 improved/no change, % of patients ([1]; 8 mg/day, LOCF): (53%)
- CIBIC-plus at Month 5 improved/no change, % of patients ([1]; 8 mg/day, observed case): (51%)
- CIBIC-plus at Month 5 improved/no change, % of patients ([1]; 16 mg/day, LOCF): (66%)***^†
- CIBIC-plus at Month 5 improved/no change, % of patients ([1]; 16 mg/day, observed case): (68%)***^†
- CIBIC-plus at Month 5 improved/no change, % of patients ([1]; 16 mg/day, observed case, listed as galantamine): 68%
- CIBIC-plus at Month 5 improved/no change, % of patients ([1]; 24 mg/day, LOCF): (64%)***^‡
- CIBIC-plus at Month 5 improved/no change, % of patients ([1]; 24 mg/day, observed case): (64%)***^‡
- CIBIC-plus at Month 5 improved/no change, % of patients ([1]; 24 mg/day, observed case, listed as galantamine): 64%
- Change in Total ADL score from baseline at Month 5, Mean ([2]; 8 mg/day, LOCF): −3.2
- Change in Total ADL score from baseline at Month 5, Mean ([2]; 8 mg/day, observed case): −3.1
- Change in Total ADL score from baseline at Month 5, Mean ([2]; 16 mg/day, LOCF): −0.7
- Change in Total ADL score from baseline at Month 5, Mean ([2]; 16 mg/day, observed case): −0.5
- Change in Total ADL score from baseline at Month 5, Mean ([2]; 24 mg/day, LOCF): −1.5
- Change in Total ADL score from baseline at Month 5, Mean ([2]; 24 mg/day, observed case): −1.6
- Change in Total NPI score from baseline at Month 5, Mean ([3]; 8 mg/day, LOCF): 2.3
- Change in Total NPI score from baseline at Month 5, Mean ([3]; 8 mg/day, observed case): 2.3
- Change in Total NPI score from baseline at Month 5, Mean ([3]; 16 mg/day, LOCF): −0.1
- Change in Total NPI score from baseline at Month 5, Mean ([3]; 16 mg/day, observed case): −0.1
- Change in Total NPI score from baseline at Month 5, Mean ([3]; 24 mg/day, LOCF): −0.0
- Change in Total NPI score from baseline at Month 5, Mean ([3]; 24 mg/day, observed case): −0.1
